Results as given in patent US6303596A, “Use of taurolidine for treatment of leukemias” (priority 2000, dated 2001).

Legend:
Format in all cases: cell-based, human
tissue factor (TF) = assay: TF activity (coagulation) assay on LPS-induced PBMC treated in whole blood
Experimental: In order to determine if taurolidine would inhibit LPS-induced TF expression in PBMC in their native milieu, i.e., whole blood, a tissue factor activity assay was performed. LPS (10 ng/ml) and taurolidine (100-500 μg/ml) or equal dilutions of the taurolidine vehicle were added to 5 ml aliquots of heparinized blood, and the blood was incubated in 50 ml centrifuige tubes at 37° C., rotating on a horizontal rotator at 120 rpm. After 4 hours, PBMC were purified from the blood using Histopaque as described previously. Cells were lysed by 3 freeze-thaw cycles, and used as a source of TF in coagulation assays. For these assays, 50 μl of lysate (at 2×10^7 cells/ml) was added to 50 μl pooled normal human plasma, incubated for 30 seconds at 37° C., then 50 μl of 25 MM CaCl2 was added and clot formation assayed using a Diagnostica Stago ST4 coagulometer. Protein content of the cell samples was determined by bicinchoninic acid assay (Pierce Chemical Company, Rockford, Ill.), and used to normalize the clotting data. A standard curve was made with descyto TF reconstituted in PS/PC vesicles according to the method of Mimms et al. (Mimms, et al., "Phospholipid vesicle formation and transmembrane protein incorporation using octyl glucoside," Biochemistry 20:833-840 (1981)). One unit of TF was defined as that which caused clot formation at 50 seconds of incubation with CaCl2. The TF activity assays were performed on LPS-induced PBMC after 4 hour treatment in whole blood. A dose-response effect of taurolidine on monocyte TF is illustrated in Table II. […] Thus, higher concentrations of taurolidine were required to inhibit TF when the PBMC were treated with whole blood when compared to PBMC in culture medium. Further, lower concentrations of taurolidine were required to down-regulate TF expression than were needed to induce apoptosis as described below.
^a Heparinized blood was incubated in the presence of LPS and varying
amounts of taurolidine, then PBMC were purified, and coagulation assays
performed on cell lysates. Units of TF per mg protein were calculated as
described above, and data expressed as percentage of LPS-only ("control")
samples. Data shown are mean ± S.D. of two experiments.

HL-60 cells = assay: trypan blue exclusion, HL-60; conditions: HL-60, 25 μg/ml taurolidine, versus MM6, K562, Jurkat
Experimental: FIGS. 7A and 7B depict cell viability and growth rates for HL-60 cell line following taurolidine treatment, in terms of % trypan blue negative cells and % cell number, respectively. Cells were treated with various concentrations of taurolidine for 4 hours in AIM-V+0.01% BCS. After aliquots were collected for LDH assay, the remainder of the culture was rinsed in HBSS and resuspended in RPMI+10% BCS without taurolidine. Counts of trypan blue-negative cells (FIG. 7A), and total cell number (FIG. 7B), were recorded daily thereafter (with the measurement at Day 1 being made immediately after the 4 hour taurolidine treatment). […] Doubling times were determined under each condition, and expressed as a percentage of the rate of doubling of untreated cells. […]
(§1) In these experiments, integrity of cell membranes following taurolidine treatment was assessed by exclusion of trypan blue and by measuring the release of LDH in MM6, K-562, HL-60, and REH cells. […] A parallel aliquot of cells was lysed by three cycles of freeze/thaw and the quantity of LDH released was taken to be 100%. […]
HL-60 cells treated with 50 μl taurolidine. In these samples, LDH present in the culture medium was 8.3±2.3% of that released by completely lysed cells, compared with 2.3±0.8% measured in control cultures. […]

HL-60 = assay: growth rate after taurolidine treatment, HL-60
Experimental: FIGS. 7A and 7B depict cell viability and growth rates for HL-60 cell line following taurolidine treatment, in terms of % trypan blue negative cells and % cell number, respectively. Cells were treated with various concentrations of taurolidine for 4 hours in AIM-V+0.01% BCS. After aliquots were collected for LDH assay, the remainder of the culture was rinsed in HBSS and resuspended in RPMI+10% BCS without taurolidine. Counts of trypan blue-negative cells (FIG. 7A), and total cell number (FIG. 7B), were recorded daily thereafter (with the measurement at Day 1 being made immediately after the 4 hour taurolidine treatment). Conditions were: no treatment (open circles); 25 μg/ml taurolidine (closed circles); 50 μg/ml taurolidine (open squares); 100 μg/ml taurolidine (closed squares); and vehicle alone (closed triangles). Doubling times were determined under each condition, and expressed as a percentage of the rate of doubling of untreated cells. These values are located to the right of the growth curves in (FIG. 7B). Cells were subcultured when they reached a concentration of 6×10^5 cells/ml. Data are mean±SEM of three experiments.
as §1, with “cells. Since BCS contains significant amounts of LDH, these experiments were conducted on cells cultured in AIM-V+0.01% BCS.” for “cells.”
HL-60 cells treated with 50 μl taurolidine. In these samples, LDH present in the culture medium was 8.3±2.3% of that released by completely lysed cells, compared with 2.3±0.8% measured in control cultures. […] After 4 hour treatment, cells were rinsed and returned to growth medium and monitored for viability and growth over the following 3 days. […]
^b Growth rate was measured over three days following treatment.

O=S1(=O)CCN(CN2CCS(=O)(=O)NC2)CN1 [taurolidine, 4,4'-methylenebis(perhydro-1,2,4-thiadiazin 1,1-dioxide)]
activity at 100 µg/mL (tissue factor (TF); Homo sapiens, PBMC, 100 μg/ml taurolidine, 4 h, mean ± S.D. of two experiments, read-out: coagulation activity of LPS-induced PBMC, % of control): 87.7 ± 6.6% | inhibition at 100 µg/mL (tissue factor (TF); Homo sapiens, PBMC, 100 μg/ml taurolidine, 4 h, read-out: decrease of TF activity): 12% | activity at 200 µg/mL (tissue factor (TF); Homo sapiens, PBMC, 200 μg/ml taurolidine, 4 h, mean ± S.D. of two experiments, read-out: coagulation activity of LPS-induced PBMC, % of control): 41.7 ± 8% | inhibition at 200 µg/mL (tissue factor (TF); Homo sapiens, PBMC, 200 μg/ml taurolidine, 4 h, read-out: decrease of TF activity): ~60% | activity at 500 µg/mL (tissue factor (TF); Homo sapiens, PBMC, 500 μg/ml taurolidine, 4 h, mean ± S.D. of two experiments, read-out: coagulation activity of LPS-induced PBMC, % of control): 26.5 ± 10.6% | inhibition at 500 µg/mL (tissue factor (TF); Homo sapiens, PBMC, 500 μg/ml taurolidine, 4 h, read-out: loss of TF activity): ~75% | reduction of TF activity of LPS-induced monocytes (tissue factor (TF); taurolidine as low as 200 μg/ml): significant reduction | trypan blue staining after treatment, sensitivity (HL-60 cells): more sensitive | sensitivity of cell growth among cell lines (HL-60; HL-60): most inhibited | activity at 50 µg/mL (HL-60; Homo sapiens, 72 h, HL-60, 50 μg/ml for 4 h, growth over three days, read-out: growth rate (% of control)): 0% | activity at 100 µg/mL (HL-60; Homo sapiens, 72 h, HL-60, 100 μg/ml for 4 h, growth over three days, read-out: growth rate (% of control)): 3%
